Results as given in publication PMC7482845, “G10 is a direct activator of human STING” (PLoS ONE, 2020).

Columns and labels:
[1] = target: T1, R232 variant of human STING (Homo sapiens, UniProt Q86WV6, H232R); assay: Luciferase (ISRE.ISG reporter) assay in HEK293T cells stably expressing R232 hSTING; type: cell-based; conditions: for EC50: HEK293T cells expressing R232 hSTING, luciferase reporter, read-out: HEK.R232 EC50; for activity against R232 STING, in words: HEK.R232 cellular assay
T1 construct: the ER fraction from R232.STING transfected HEK293T cells which contained full length STING
T1 sequence (Q86WV6 whole entry H232R): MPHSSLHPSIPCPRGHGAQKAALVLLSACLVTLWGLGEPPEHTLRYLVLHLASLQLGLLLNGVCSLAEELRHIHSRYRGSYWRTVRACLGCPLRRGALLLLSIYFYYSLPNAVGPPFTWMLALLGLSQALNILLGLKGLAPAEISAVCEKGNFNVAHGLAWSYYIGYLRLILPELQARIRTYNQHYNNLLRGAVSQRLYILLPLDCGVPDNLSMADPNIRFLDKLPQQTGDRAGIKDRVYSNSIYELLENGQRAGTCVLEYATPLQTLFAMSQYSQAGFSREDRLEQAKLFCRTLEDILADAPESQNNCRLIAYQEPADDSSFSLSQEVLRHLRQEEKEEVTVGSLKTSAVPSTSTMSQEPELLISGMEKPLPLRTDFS
Source text: (§1) • a) Stable STING expressing cells. Stable HEK293T STING-expressing cell lines were generated using plasmids purchased from Invivogen, CA, USA, that contain STING cDNA cloned into the pUNO-1 vector under the hEF1-HTLV promoter as well as the Blasticidin selection cassette. The human STING plasmids corresponding to the R232, H232 and HAQ variants were directly procured from Invivogen while the AQ and Q variants were created by mismatch PCR using cDNA from HAQ.STING and R232.STING variants respectively. These vectors were individually transfected into HEK293T cells using Lipofectamine (Invitrogen) and transfected cells were expanded under Blasticidin selection. These cells were further subjected to clonal selection using the limiting dilution method to obtain clonally pure populations of HEK293T cells expressing each of the five human STING variants. Clones with minimal ligand independent activation of STING were chosen for cellular experiments. • b) N-His R232.hSTING HEK293T cells. HEK293T cells stably expressing N-His R232.hSTING were generated by the following described method. N-His R232.hSTING.pcDNA Myc B plasmid was transfected into HEK293T cells using Lipofectamine reagent (Invitrogen) and the transfected cells were selected under Hygromycin. Stably STING expressing HEK293T cells thus selected were further subjected to single cell clonal selection using the limiting dilution method to obtain a clonally pure population of HEK293T cells expressing the human R232 STING variant.
[…] clonally selected HEK293T-hSTING-Luciferase cells or control HEK293T-Luciferase cells were seeded in 384-well plates in growth medium and stimulated with known STING agonists or novel compounds. […]

[2] = target: T2, HAQ STING (THP-1 cells) (Homo sapiens, UniProt Q86WV6, G230A/R293Q/R71H); assay: THP1 cellular assay (EC50); type: cell-based; conditions: for THP-1 EC50 / EC50: THP-1 cells (HAQ STING); for activation of THP1 cells, in words: THP1 cellular assay
T2 construct: THP1 cells constitutively express the HAQ variant of human STING; host or cells: THP-1
T2 sequence (Q86WV6 whole entry R71H/G230A/R293Q): as the sequence (Q86WV6 whole entry H232R) above, with R71H, G230A, R232H, R293Q counted along it

[3] = target: T3, recombinant CTT domain of R232 STING (Homo sapiens, UniProt Q86WV6, H232R); assay: In vitro kinase assay, recombinant CTT domain of R232 STING plus recombinant TBK1; type: biochemical; conditions: STING source not stated (S3 Fig)
T3 construct: corresponding to the soluble domain of STING (138 to 379 aa) protein; purchased Cayman Chemicals (STING); Invitrogen (TBK1) 22816 (STING); A31514 (TBK1)
T3 sequence (Q86WV6 138-379 H232R): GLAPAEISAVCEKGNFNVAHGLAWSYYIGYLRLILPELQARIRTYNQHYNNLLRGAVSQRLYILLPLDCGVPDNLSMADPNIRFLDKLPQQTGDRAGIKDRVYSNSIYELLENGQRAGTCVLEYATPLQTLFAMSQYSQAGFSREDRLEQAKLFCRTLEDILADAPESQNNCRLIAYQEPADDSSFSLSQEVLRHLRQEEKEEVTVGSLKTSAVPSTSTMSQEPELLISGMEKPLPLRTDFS
Method: 50ng of recombinant STING protein (Cayman Chemicals Cat# 22816) corresponding to the soluble domain of STING (138 to 379 aa) protein or 1 μl of ER fraction (8mg/ml) containing full length STING from R232.hSTING was incubated with 20 ng of recombinant full length TBK1 protein (Invitrogen, Cat# A31514) in the presence/absence of test compound in 20 μl reaction buffer (50mM Tris-HCl of pH 7.4, 100mM NaCl, 5mM MgCl2, 5mM MnCl2, 10% glycerol, 0.2mM Na3VO4, 20mM β-glycero-PO4, 0.5mM ATP) and 0.01% BSA at 30 °C for 45 min. The reaction was quenched by addition of 2 μl of 10X EDTA to a final concentration of […]. Samples were treated with 4x gel loading dye followed by electrophoresis in 10% SDS-PAGE gels and transferred to Immobilon-P membranes (Millipore). […] Anti-rabbit HRP labelled secondary antibody (Abcam) and Clarity Max™ western ECL substrate (Biorad, Cat# 1705062) were used for visualization of bands using a BioRad XRS plus imager.

[4] = tested on: multiple STING variants overexpressed in HEK293T cells; assay: Luciferase reporter assay of STING variants overexpressed in HEK293T cells (Compound 8); type: cell-based, human; conditions: HEK293T cells (S4 Fig)
Source text: as §1, with “HEK293T cells stably expressing N-His R232.hSTING were generated by the following described method. N-His R232.hSTING.pcDNA Myc B plasmid was transfected into HEK293T cells using Lipofectamine reagent (Invitrogen) and the transfected cells were selected under Hygromycin. Stably STING expressing HEK293T cells thus selected were further subjected to single cell clonal selection using the limiting dilution method to obtain a clonally pure population of HEK293T cells expressing the human R232 STING variant.” left out
5 x 10^5 clonally selected HEK293T-hSTING-Luciferase cells or control HEK293T-Luciferase cells were seeded in 384-well plates in growth medium and stimulated with known STING agonists or novel compounds. Supernatants were removed after 20 hours of treatment and secretory reporter gene activity was measured using the Quanti-Luc detection system (Invivogen) on a Spectramax i3X luminometer.

[5] = tested on: Human STING variants (HEK293T cells); assay: Phosphorylation of STING variants overexpressed in HEK293T cells (Compound 8); type: cell-based; conditions: HEK293T cells (S5 Fig)
Method: 5 x 10^5 cells were seeded in 24-well plates in 500 μl growth medium and stimulated with novel compounds at 10μM. After 2 hours of treatment cells were harvested by centrifugation and cell pellets were lysed in RIPA buffer (20mM Tris-Cl, 150mM NaCl, 0.5mM EDTA, 1% NP40, 0.05% SDS) containing 1x phosphatase inhibitor cocktail 3 (Sigma) and 1x protease inhibitor (Roche) to extract the soluble fraction of protein. 10 μg of extracted protein was electrophoresed in 10% SDS-PAGE gels and transferred onto Immobilon-P membranes (Millipore). […] Anti-rabbit HRP label secondary antibody (Abcam) and Clarity Max™ western ECL substrate (Biorad—cat# 1705062) were used for visualization of bands using a BioRad XRS plus imager.

[6] = target: T4, STING in human PBMCs (Homo sapiens, UniProt Q86WV6); assay: Phosphorylation of STING in human PBMCs; type: cell-based; conditions: multiple donors (S6 Fig)
T4 construct: endogenous in cells; host or cells: human PBMCs, multiple donors
T4 sequence (Q86WV6 whole entry): as the sequence (Q86WV6 whole entry H232R) above, with R232H counted along it

[7] = target: T5, STING in human tumor lines (Homo sapiens, UniProt Q86WV6); assay: Phosphorylation of STING in human tumor lines; type: cell-based; conditions: S7 Fig
T5 construct: endogenous in cells
T5 sequence (Q86WV6 whole entry): as the sequence (Q86WV6 whole entry H232R) above, with R232H counted along it

[8] = tested on: human STING; parameters: method as in PMID 23585680; conditions: any variant of human STING; cited from earlier work

SMILES	EC50 [1]	activity against R232 STING, in words [1]	activation of THP1 cells, in words [2]	EC50 [2]	further results
O=C(NCc1ccco1)c1ccc2c(c1)N(Cc1c(F)cccc1F)C(=O)CS2 [Compound 2, 4-(2,6-Difluorobenzyl)-N-(furan-2-ylmethyl)-3-oxo-3,4-dihydro-2H-benzo[b][1,4]thiazine-6-carboxamide]	3970 nM	–	–	–	THP-1 EC50 [2]: Nil @ 30uM
O=C(NCc1ccco1)c1ccc2c(c1)N(Cc1ccccc1)C(=O)CS2 [Compound 3, 1-Benzyl-N-(furan-2-ylmethyl)-2-oxo-2,3-dihydro-1H-benzo[b][1,4]thiazine-7-carboxamide]	9130 nM	–	–	–	THP-1 EC50 [2]: Nil @ 30uM
O=C(NCc1c(F)cc(F)cc1F)c1ccc2c(c1)N(Cc1c(F)cc(O)cc1F)C(=O)CS2 [Compound 7, 4-(2,6-Difluoro-4-hydroxybenzyl)-3-oxo-N-(2,4,6-trifluorobenzyl)-3,4-dihydro-2H-benzo[b][1,4]thiazine-6-carboxamide]	71.6 nM	sharp increases in activity	significant activity	1.38 µM	–
O=C(NCc1c(F)cc(F)cc1F)c1ccc2c(c1)N(Cc1c(F)cccc1Cl)C(=O)CS2 [Compound 5, 4-(2-Chloro-6-fluorobenzyl)-3-oxo-N-(2,4,6-trifluorobenzyl)-3,4-dihydro-2H-benzo[b][1,4]thiazine-6-carboxamide]	188 nM	–	very weak activation	> 10 µM	–
CC1Sc2ccc(C(=O)NCc3c(F)cc(F)cc3F)cc2N(Cc2c(F)cccc2Cl)C1=O (stereo not shown) [Compound 8, 4-(2-Chloro-6-fluorobenzyl)-2-methyl-3-oxo-N-(2,4,6-trifluorobenzyl)-3,4-dihydro-2H-benzo[b][1,4]thiazine-6-carboxamide]	122 nM	sub-micromolar activity	sub-micromolar activity	0.944 µM	activity in the cell-free pSTING assay [3]: confirmed activity; activation of multiple STING variants, luciferase reporter assay [4]: activated; phosphorylation of human STING variants [5]: phosphorylated; phosphorylation of STING in human PBMCs [6]: phosphorylated STING; phosphorylation of STING in human tumor lines [7]: phosphorylated STING
CC1Sc2ccc(C(=O)NCc3c(F)cc(F)cc3F)cc2N(Cc2c(F)ccc(O)c2Cl)C1=O (stereo not shown) [Compound 9, 4-(2-Chloro-6-fluoro-3-hydroxybenzyl)-2-methyl-3-oxo-N-(2,4,6-trifluorobenzyl)-3,4-dihydro-2H-benzo[b][1,4]thiazine-6-carboxamide]	96 nM	sub-micromolar activity	sub-micromolar activity	0.412 µM	–
CC1Sc2ncc(C(=O)NCc3cc4ccccc4o3)cc2N(Cc2cc(F)cc(F)c2)C1=O (stereo not shown) [Compound 12, N-(Benzofuran-2-ylmethyl)-1-(3,5-difluorobenzyl)-3-methyl-2-oxo-2,3-dihydro-1H-pyrido[2,3-b][1,4]thiazine-7-carboxamide]	91 nM	–	–	~8 µM	–
Cc1ccc2c(=O)c3cccc(CC(=O)O)c3oc2c1C [DMXAA, 5,6 dimethyl xanthenone 4-acetic acid]	–	–	–	–	activation of human STING variants [8]: does not activate
O=C(NCc1ccc(F)cc1F)c1ccc2c(c1)N(Cc1c(F)cccc1Cl)C(=O)CS2 [Compound 4, 4-(2-Chloro-6-fluorobenzyl)-N-(2,4-difluorobenzyl)-3-oxo-3,4-dihydro-2H-benzo[b][1,4]thiazine-6-carboxamide]	292 nM	–	very weak activation	> 30 µM	–
CC1Sc2ccc(C(=O)NCc3c(F)cc(F)cc3F)cc2N(Cc2cc(F)cc(F)c2)C1=O (stereo not shown) [Compound 10]	421 nM	–	–	~6 µM	–
COc1cc(F)c(CN2C(=O)CSc3ccc(C(=O)NCc4c(F)cc(F)cc4F)cc32)c(F)c1 [Compound 6, 4-(2,6-Difluoro-4-methoxybenzyl)-3-oxo-N-(2,4,6-trifluorobenzyl)-3,4-dihydro-2H-benzo[b][1,4]thiazine-6-carboxamide]	160 nM	sharp increases in activity	–	> 10 µM	–
O=C(NCc1ccco1)c1ccc2c(c1)N(Cc1c(Cl)cccc1Cl)C(=O)CS2 [Compound 1, 4-(2,6-Dichlorobenzyl)-N-(furan-2-ylmethyl)-3-oxo-3,4-dihydro-2H-benzo[b][1,4]thiazine-6-carboxamide]	2160 nM	–	–	–	THP-1 EC50 [2]: Nil @ 30uM
